Several values for one entry are separate records, joined by “and”; a condition that tells them apart may be missing. Equal values may be shown once. Inconclusive results and toxic doses are left out. Starred links: 1 amine or outer side, 2 acyl side, 3 side chain; linkers in the order of their positions; H or OH if unused. Positions of bridges follow the written chain, without caps; N, C: chain ends. Non-standard residues stand in square brackets, D forms with d. Residues, ends and D or L forms follow the SMILES beside them. Chains are numbered I, II in the order given. Actinocin(9to1) = Cc1c2oc3c(C)ccc(C(=O)[*:1])c3nc-2c(C(=O)[*:2])c(N)c1=O; aThr = C[C@H](O)[C@H](N)C(=O)O; NMeV = CN[C@H](C(=O)O)C(C)C; Sar = CNCC(=O)O
Test system: BDF1 mice, L1210 terephthalanilide-resistant leukemia ip, survival T/C
Test: NCI In Vivo Anticancer Drug Screen. Data for tumor model L1210 Leukemia resistant to A Terephthalanilide; NSC 38280 (intraperitoneal) in B6D2F1 (BDF1) mice
Settings: endpoint: mean survival time, higher = longer survival
Protocol: The antitumor activity of compounds was measured in mice bearing transplantable tumors. Survival or tumor size were measured and the results are expressed as the measurement made in the treated group (T) divided by the measurement made in the vehicle treated control group (C). The tumor model used in this assay is L1210 Leukemia resistant to A Terephthalanilide; NSC 38280 (intraperitoneal) in B6D2F1 (BDF1) mice

[1] = dose: 250.0 mg/kg/injection, schedule: Q01DX Z (ip), vehicle: saline
[2] = dose: 500.0 mg/kg/injection, schedule: Q01DX Z (ip), vehicle: saline
[3] = dose: 20.0 mg/kg/injection, schedule: Q01DX010 (ip), vehicle: saline
[4] = dose: 5.0 mg/kg/injection, schedule: Q01DX Z (ip), vehicle: carboxymethylcellulose (CMC)
[5] = dose: 7.5 mg/kg/injection, schedule: Q01DX Z (ip), vehicle: carboxymethylcellulose (CMC)
[6] = dose: 10.0 mg/kg/injection, schedule: Q01DX Z (ip), vehicle: carboxymethylcellulose (CMC)
[7] = dose: 25.0 mg/kg/injection, schedule: Q01DX010 (ip), vehicle: saline
[8] = dose: 25.0 mg/kg/injection, schedule: Q01DX Z (ip), vehicle: carboxymethylcellulose (CMC)
[9] = dose: 50.0 mg/kg/injection, schedule: Q01DX010 (ip), vehicle: saline
[10] = dose: 200.0 mg/kg/injection, schedule: Q01DX010 (ip), vehicle: saline

`N[C@@H](Cc1ccc(N(CCCl)CCCl)cc1)C(=O)O` was tested, and the T/C (dose: 2.0 mg/kg/injection, schedule: Q01DX Z (ip), vehicle: carboxymethylcellulose (CMC)) was 252 % of control, the T/C (dose: 4.0 mg/kg/injection, schedule: Q01DX Z (ip), vehicle: carboxymethylcellulose (CMC)) was 155 % of control and the T/C (dose: 8.0 mg/kg/injection, schedule: Q01DX Z (ip), vehicle: carboxymethylcellulose (CMC)) was 187 % of control. For the same compound, the T/C (dose: 12.0 mg/kg/injection, schedule: Q01DX Z (ip), vehicle: carboxymethylcellulose (CMC)) was 169 % of control and the T/C (dose: 18.0 mg/kg/injection, schedule: Q01DX Z (ip), vehicle: carboxymethylcellulose (CMC)) was 91 % of control.
In the case of `O=c1cnn(C2OC(CO)C(O)C2O)c(=O)[nH]1` (stereo not drawn), the T/C (dose: 50.0 mg/kg/injection, schedule: Q01DX Z (ip), vehicle: saline) is reported as 172 % of control, the T/C (dose: 100.0 mg/kg/injection, schedule: Q01DX Z (ip), vehicle: saline) is reported as 164 % of control and the T/C (dose: 187.0 mg/kg/injection, schedule: Q01DX Z (ip), vehicle: saline) is reported as 181 % of control. For the same compound, the T/C [1] was 224 % of control, the T/C (dose: 375.0 mg/kg/injection, schedule: Q01DX Z (ip), vehicle: saline) was 218 % of control and the T/C [2] was 225 % of control. For the same compound, the T/C (dose: 750.0 mg/kg/injection, schedule: Q01DX Z (ip), vehicle: saline) was 222 % of control, the T/C (dose: 800.0 mg/kg/injection, schedule: Q01DX010 (ip), vehicle: saline) was 167 % of control and the T/C (dose: 1000.0 mg/kg/injection, schedule: Q01DX Z (ip), vehicle: saline) was 182 % of control. The T/C (dose: 1600.0 mg/kg/injection, schedule: Q01DX010 (ip), vehicle: saline) was 86 % of control.
With `CSCS(=O)C[C@H](CO)NC(=O)/C=C/c1c(C)[nH]c(=O)[nH]c1=O` (stereo partly drawn) the T/C (dose: 62.5 micrograms/kg/injection, schedule: Q01DX010 (ip), vehicle: saline) was 100 % of control, the T/C (dose: 125.0 micrograms/kg/injection, schedule: Q01DX010 (ip), vehicle: saline) was 100 % of control and the T/C (dose: 250.0 micrograms/kg/injection, schedule: Q01DX010 (ip), vehicle: saline) was 102 % of control. The T/C (dose: 500.0 micrograms/kg/injection, schedule: Q01DX010 (ip), vehicle: saline) was 102 % of control.
`Cn1c(N)nc2nc[nH]c2c1=S` was tested, and the T/C (dose: 10.0 mg/kg/injection, schedule: Q01DX010 (ip), vehicle: saline) was 103 % of control, the T/C (dose: 16.0 mg/kg/injection, schedule: Q01DX Z (ip), vehicle: carboxymethylcellulose (CMC)) was 111 % of control and the T/C [3] was 93 % of control. For the same compound, the T/C (dose: 31.0 mg/kg/injection, schedule: Q01DX Z (ip), vehicle: carboxymethylcellulose (CMC)) was 120 % of control, the T/C (dose: 37.5 mg/kg/injection, schedule: Q01DX Z (ip), vehicle: carboxymethylcellulose (CMC)) was 150 % of control and the T/C (dose: 40.0 mg/kg/injection, schedule: Q01DX010 (ip), vehicle: saline) was 99 % of control. The T/C (dose: 50.0 mg/kg/injection, schedule: Q01DX Z (ip), vehicle: carboxymethylcellulose (CMC)) was 154 % of control, the T/C (dose: 75.0 mg/kg/injection, schedule: Q01DX Z (ip), vehicle: carboxymethylcellulose (CMC)) was 119 % of control and the T/C (dose: 80.0 mg/kg/injection, schedule: Q01DX010 (ip), vehicle: saline) was 100 % of control. The T/C (dose: 150.0 mg/kg/injection, schedule: Q01DX Z (ip), vehicle: carboxymethylcellulose (CMC)) was 150 % of control.
For `N=[N+]=CC(=O)OCC(N)C(=O)O` (stereo not drawn), the T/C (dose: 1.0 mg/kg/injection, schedule: Q01DX Z (ip), vehicle: carboxymethylcellulose (CMC)) was 122 % of control, the T/C (dose: 3.75 mg/kg/injection, schedule: Q01DX Z (ip), vehicle: carboxymethylcellulose (CMC)) was 168 % of control and the T/C [4] was 171 % of control. For the same compound, the T/C (dose: 6.25 mg/kg/injection, schedule: Q01DX010 (ip), vehicle: saline) was 156 % of control, the T/C [5] was 183 % of control and the T/C [6] was 174 % of control. The T/C (dose: 12.5 mg/kg/injection, schedule: Q01DX010 (ip), vehicle: saline) was 118 % of control, the T/C [7] was 97 % of control and the T/C (dose: 30.0 mg/kg/injection, schedule: Q01DX Z (ip), vehicle: carboxymethylcellulose (CMC)) was 115 % of control.
For `CN=C(NC)c1ccc(NC(=O)Nc2ccc(NC(=O)Nc3ccc(C(=NC)NC)cc3)cc2)cc1`, the T/C (dose: 13.3 mg/kg/injection, schedule: Q01DX010 (ip), vehicle: saline) was 101 % of control and the T/C [3] was 101 % of control.
`Cc1c2oc3c(C)ccc(C(=O)N[C@@H]4C(=O)N[C@H](C(C)C)C(=O)N5CCC[C@H]5C(=O)N(C)CC(=O)N(C)[C@@H](C(C)C)C(=O)O[C@H]4C)c3nc-2c(C(=O)N[C@@H]2C(=O)N[C@H](C(C)C)C(=O)N3CCC[C@H]3C(=O)N(C)CC(=O)N(C)[C@@H](C(C)C)C(=O)O[C@H]2C)c(N)c1=O` (I: [aThr][dV]P[Sar][NMeV] / II: [aThr][dV]P[Sar][NMeV]; ester I:1-I:C, II:1-II:C; linker I:N-II:N via Actinocin(9to1)) was tested, and the T/C (dose: 12.5 micrograms/kg/injection, schedule: Q01DX010 (ip), vehicle: other) was 117 % of control and 118 % of control, the T/C (dose: 25.0 micrograms/kg/injection, schedule: Q01DX010 (ip), vehicle: other) was 121 % of control and 118 % of control and the T/C (dose: 50.0 micrograms/kg/injection, schedule: Q01DX010 (ip), vehicle: other) was 124 % of control and 117 % of control. The T/C (dose: 100.0 micrograms/kg/injection, schedule: Q01DX010 (ip), vehicle: other) was 95 % of control and 103 % of control.
In the case of `CCn1cnc2c(=S)nc[nH]c21`, the T/C (dose: 15.6 mg/kg/injection, schedule: Q01DX010 (ip), vehicle: saline) is reported as 104 % of control, the T/C [8] is reported as 113 % of control and the T/C (dose: 31.3 mg/kg/injection, schedule: Q01DX010 (ip), vehicle: saline) is reported as 106 % of control and 109 % of control. For the same compound, the T/C (dose: 62.5 mg/kg/injection, schedule: Q01DX010 (ip), vehicle: saline) was 95 % of control and 118 % of control, the T/C (dose: 100.0 mg/kg/injection, schedule: Q01DX Z (ip), vehicle: carboxymethylcellulose (CMC)) was 155 % of control and the T/C (dose: 125.0 mg/kg/injection, schedule: Q01DX010 (ip), vehicle: saline) was 123 % of control and 106 % of control.
With `CC(CCC(C)OS(C)(=O)=O)OS(C)(=O)=O` (stereo not drawn) the T/C (dose: 2.0 mg/kg/injection, schedule: Q01DX010 (ip), vehicle: saline) was 102 % of control, the T/C (dose: 2.5 mg/kg/injection, schedule: Q01DX Z (ip), vehicle: carboxymethylcellulose (CMC)) was 94 % of control and the T/C (dose: 4.0 mg/kg/injection, schedule: Q01DX010 (ip), vehicle: saline) was 95 % of control and 100 % of control. The T/C [4] was 97 % of control, the T/C [5] was 103 % of control and the T/C (dose: 8.0 mg/kg/injection, schedule: Q01DX010 (ip), vehicle: saline) was 100 % of control. For the same compound, the T/C [6] was 111 % of control, the T/C (dose: 12.5 mg/kg/injection, schedule: Q01DX Z (ip), vehicle: carboxymethylcellulose (CMC)) was 109 % of control and the T/C (dose: 16.0 mg/kg/injection, schedule: Q01DX010 (ip), vehicle: saline) was 100 % of control and 112 % of control. The T/C [8] was 88 % of control and the T/C (dose: 32.0 mg/kg/injection, schedule: Q01DX010 (ip), vehicle: saline) was 110 % of control.
With `C1CN1c1nc(N2CC2)nc(N2CC2)n1` the T/C (dose: 0.13 mg/kg/injection, schedule: Q01DX010 (ip), vehicle: saline) was 108 % of control, the T/C (dose: 0.25 mg/kg/injection, schedule: Q01DX010 (ip), vehicle: saline) was 99 % of control and the T/C (dose: 0.5 mg/kg/injection, schedule: Q01DX010 (ip), vehicle: saline) was 104 % of control.
With `CN(C)/N=N/c1nc[nH]c1C(N)=O` the T/C [7] was 123 % of control and 101 % of control, the T/C [9] was 114 % of control and the T/C [10] was 102 % of control.
`CCOC(=O)NP(=O)(N1CC1(C)C)N1CC1(C)C` (stereo not drawn) was tested, and the T/C (dose: 5.0 mg/kg/injection, schedule: Q01DX Z (ip), vehicle: saline) was 101 % of control, the T/C (dose: 10.0 mg/kg/injection, schedule: Q01DX Z (ip), vehicle: saline) was 115 % of control and the T/C (dose: 20.0 mg/kg/injection, schedule: Q01DX Z (ip), vehicle: saline) was 121 % of control. For the same compound, the T/C (dose: 40.0 mg/kg/injection, schedule: Q01DX Z (ip), vehicle: saline) was 151 % of control, the T/C (dose: 62.0 mg/kg/injection, schedule: Q01DX Z (ip), vehicle: saline) was 164 % of control and the T/C (dose: 125.0 mg/kg/injection, schedule: Q01DX Z (ip), vehicle: saline) was 236 % of control. The T/C [1] was 302 % of control and the T/C [2] was 100 % of control.
`C#CCN(C)Cc1ccccc1` was tested, and the T/C [9] was 91 % of control, the T/C (dose: 100.0 mg/kg/injection, schedule: Q01DX010 (ip), vehicle: saline) was 102 % of control and the T/C [10] was 93 % of control.

— PubChem BioAssay AID282 (DTP/NCI, 2004)
